{"source": "patent US20160184274A1", "about": "“Methods for inhibiting mesenchymal phenotype after epithelial-to-mesenchymal transition” (Fibrostatin, S.L., priority 2014, published 2016)", "key": {"[1]": {"tested_on": "4T1 mouse breast cancer cells", "test": "Murine breast cancer 4T1 model", "type": "in vivo, Balb/c mice", "experimental": "FIG. 10. […] Control, n=43; T12, n=18. FIG. 11. T12 targets circulating 4T1 cancer cells. A, Balb/c female mice were inoculated with 4T1 mouse breast cancer cells at mammary fat pads. At day 20 after cell inoculation mice were subjected to PET analysis for metastases detection. White arrows denote metastatic foci at the spinal cord. B, Balb/c female from A were either left untreated (Control), or were treated with T12 in drinking water from day 20. At day 35 blood was seeded in the presence of 6-thioguanine and circulating 4T1 cells selected and further cultured. Shown are phase contrast images of the resulting cultures acquired with an inverted microscope. […] C, circulating 4T1 cells recovered as in B and 4T1 cells were cultured in standard 2D cultures and subjected to RNA extraction, and RNA samples were analyzed by RT-qPCR. Shown are the relative quantities (RQ) of the indicated mRNAs of circulating 4T1 cells using levels from 4T1 cells as reference. D, the cultures in C were treated with the indicated concentrations of T12 for 24 h. Dead cells in culture media were quantified by measuring cell size using an automated cell counter (Moxi Z, Orflo). The number of dead cells in the culture media of the respective untreated cells (−) was used as reference. E, circulating 4T1 cells recovered as in B or 4T1 cells were cultured in ultra-low binding plates and treated with the indicated concentrations of T12 for 9 days, cells were lysed and analyzed by Western blot using antibodies specific for activated caspase 3. The levels of GAPDH were determined for loading control purposes. For other assays, 10^4 4 T1 cells were suspended in 10 μl PBS and subcutaneously injected into the 4th mammary fat pad of 4-week-old Balb/c female mice, and either left untreated or treated since the inoculation day with T12 (12 mg/kg/day in drinking water). Primary tumors formed and dimensions were periodically measured with a caliper."}, "[2]": {"tested_on": "circulating 4T1 cells", "test": "Cell death / caspase 3 activation in circulating 4T1 cells", "type": "cell-based, Mouse", "experimental": "FIG. 11. T12 targets circulating 4T1 cancer cells. A, Balb/c female mice were inoculated with 4T1 mouse breast cancer cells at mammary fat pads. At day 20 after cell inoculation mice were subjected to PET analysis for metastases detection. White arrows denote metastatic foci at the spinal cord. B, Balb/c female from A were either left untreated (Control), or were treated with T12 in drinking water from day 20. At day 35 blood was seeded in the presence of 6-thioguanine and circulating 4T1 cells selected and further cultured. Shown are phase contrast images of the resulting cultures acquired with an inverted microscope. […] C, circulating 4T1 cells recovered as in B and 4T1 cells were cultured in standard 2D cultures and subjected to RNA extraction, and RNA samples were analyzed by RT-qPCR. Shown are the relative quantities (RQ) of the indicated mRNAs of circulating 4T1 cells using levels from 4T1 cells as reference. […] Dead cells in culture media were quantified by measuring cell size using an automated cell counter (Moxi Z, Orflo). […] E, circulating 4T1 cells recovered as in B or 4T1 cells were cultured in ultra-low binding plates and treated with the indicated concentrations of T12 for 9 days, cells were lysed and analyzed by Western blot using antibodies specific for activated caspase 3. The levels of GAPDH were determined for loading control purposes. […]"}}, "note": "Entries after “also recorded” stand apart in the source; their conditions may differ.", "data": [{"smiles": "COc1ccc(-c2ccc(-c3cccc(C)c3)c(C)c2)c(CCC(=O)O)c1", "note": "[T12, 3-[4″-methoxy-3,2′-dimethyl-(1,1′;4′,1″)terphenyl-2″-yl] propionic acid]", "values": [{"measurement": "tumor volume (anti-tumor activity)", "setting": "[1]; T12 12 mg/kg/day in drinking water from inoculation, FIG. 10B, 12 mg/kg/day", "result": "displayed anti-tumor activity; also recorded: differences are statistically significant"}, {"measurement": "superficial metastasis per lung", "setting": "[1]; T12 12 mg/kg/day in drinking water, day 25, FIG. 10C, 12 mg/kg/day", "result": "inhibited metastasis formation; also recorded: Differences are statistically significant"}, {"measurement": "recovery of circulating 4T1 tumor cells from blood", "setting": "[1]; T12 in drinking water from day 20, blood seeded at day 35 with 6-thioguanine, FIG. 11B", "result": "impeded the isolation of circulating 4T1 tumor cells; also recorded: could not be recovered"}, {"measurement": "sensitivity to T12 after further induction of mesenchymal phenotype", "setting": "[2]; 4T1 cells inoculated into mice or cultured in low adherent dishes (3D cultures), FIG. 11", "result": "more sensitivity to T12"}, {"measurement": "sensitivity to T12: dead cells and activated caspase 3", "setting": "[2]; 24 h (dead cells) or 9 days in ultra-low binding plates (caspase 3), FIG. 11D-E", "result": "more sensitive and underwent apoptotic cell death (caspase 3 activation)"}]}]}
